Assay results published in PubChem BioAssay AID200 (DTP/NCI, 2004).
Values joined by “and” are separate entries in the source; they are usually repeats but may differ in a detail not shown here. Equal values may be shown once. Inconclusive results and toxic doses are left out. The calls were made as follows: active = survival T/C of 150% or more; inactive = T/C below 125% in these data.

Tested on: B6C3F1 mice, B16 melanoma ip, median survival T/C
Assay: NCI In Vivo Anticancer Drug Screen. Data for tumor model B16 Melanoma (intraperitoneal) in B6C3F1 mice
Conditions: endpoint: median survival time, higher = longer survival
Method in brief: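 Transplantable tumor in mice; treated vs vehicle control groups; survival or tumor size measured; value = T/C ratio.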

[1] = dose: 12.5 mg/kg/injection, schedule: Q01DX009 (ip), vehicle: saline with Tween-80
[2] = dose: 25.0 mg/kg/injection, schedule: Q01DX009 (ip), vehicle: saline with Tween-80
[3] = dose: 50.0 mg/kg/injection, schedule: Q01DX009 (ip), vehicle: saline with Tween-80
[4] = dose: 100.0 mg/kg/injection, schedule: Q01DX009 (ip), vehicle: saline with Tween-80
[5] = dose: 200.0 mg/kg/injection, schedule: Q01DX009 (ip), vehicle: saline with Tween-80
[6] = dose: 400.0 mg/kg/injection, schedule: Q01DX009 (ip), vehicle: saline with Tween-80
[7] = dose: 7.5 mg/kg/injection, schedule: Q01DX009 (ip), vehicle: Klucel (hydroxypropylcellulose) (HPC)
[8] = dose: 15.0 mg/kg/injection, schedule: Q01DX009 (ip), vehicle: Klucel (hydroxypropylcellulose) (HPC)

Measured: T/C

O=C(NC1CCCCC1)OCc1c(COC(=O)NC2CCCCC2)c(-c2ccc(Cl)c(Cl)c2)n2c1CCC2
active: [1] 190 % of control | [2] 162 % of control and 222 % of control | [3] 199 % of control and 235 % of control | [4] 203 % of control and 316 % of control | [5] 181 % of control and 214 % of control
inactive: [6] 112 % of control

CC(C)NC(=O)OCc1c(COC(=O)NC(C)C)c(-c2ccc(Cl)c(Cl)c2)n2c1CC(OC(=O)CN(C)C)C2 (configuration not stated)
active: dose: 10.0 mg/kg/injection, schedule: Q01DX009 (ip), vehicle: distilled water + Tween-80 152 % of control and 153 % of control | dose: 20.0 mg/kg/injection, schedule: Q01DX009 (ip), vehicle: distilled water + Tween-80 152 % of control and 168 % of control | dose: 40.0 mg/kg/injection, schedule: Q01DX009 (ip), vehicle: distilled water + Tween-80 174 % of control and 190 % of control

Cc1cc(NCCCCCCCCNc2cc(C)nc3cc(N(C)C)ccc23)c2ccc(N(C)C)cc2n1
inactive: dose: 3.12 mg/kg/injection, schedule: Q01DX009 (ip), vehicle: distilled water + Tween-80 105 % of control | dose: 6.25 mg/kg/injection, schedule: Q01DX009 (ip), vehicle: distilled water + Tween-80 115 % of control | dose: 25.0 mg/kg/injection, schedule: Q01DX009 (ip), vehicle: distilled water + Tween-80 121 % of control

O=c1nc(-c2ccco2)sc(=O)[nH]1
inactive: dose: 25.0 mg/kg/injection, schedule: Q01DX009 (ip), vehicle: Klucel (hydroxypropylcellulose) (HPC) 95 % of control | dose: 50.0 mg/kg/injection, schedule: Q01DX009 (ip), vehicle: Klucel (hydroxypropylcellulose) (HPC) 99 % of control | dose: 100.0 mg/kg/injection, schedule: Q01DX009 (ip), vehicle: Klucel (hydroxypropylcellulose) (HPC) 118 % of control | dose: 200.0 mg/kg/injection, schedule: Q01DX009 (ip), vehicle: Klucel (hydroxypropylcellulose) (HPC) 112 % of control

C=Cc1cc(OC)c2c(c1)c(=O)oc1c2cc(OC)c2c(O)ccc(C3OC(C)C(O)C(C)(O)C3O)c21 (configuration not stated)
active: dose: 20.0 mg/kg/injection, schedule: Q01DX009 (ip), vehicle: DMSO 158 % of control | dose: 40.0 mg/kg/injection, schedule: Q01DX009 (ip), vehicle: DMSO 169 % of control and 196 % of control | dose: 80.0 mg/kg/injection, schedule: Q01DX009 (ip), vehicle: DMSO 207 % of control
inactive: dose: 2.5 mg/kg/injection, schedule: Q01DX009 (ip), vehicle: DMSO 120 % of control | dose: 5.0 mg/kg/injection, schedule: Q01DX009 (ip), vehicle: DMSO 124 % of control and 103 % of control

CCCC(=O)c1ccco1
inactive: [1] 98 % of control | [2] 109 % of control | [3] 100 % of control

NC(=O)c1[nH]nc(C2OC(CO)C(O)C2O)c1O (configuration not stated)
inactive: dose: 0.13 mg/kg/injection, schedule: Q01DX009 (ip), vehicle: saline 106 % of control | dose: 0.25 mg/kg/injection, schedule: Q01DX009 (ip), vehicle: saline 103 % of control | dose: 0.5 mg/kg/injection, schedule: Q01DX009 (ip), vehicle: saline 111 % of control | dose: 1.0 mg/kg/injection, schedule: Q01DX009 (ip), vehicle: saline 118 % of control

CS(=O)(=O)Nc1ccc(C(=O)CCN2CCCCCC2)cc1
inactive: dose: 25.0 mg/kg/injection, schedule: Q01DX009 (ip), vehicle: suspension in saline 122 % of control | dose: 50.0 mg/kg/injection, schedule: Q01DX009 (ip), vehicle: suspension in saline 98 % of control | dose: 100.0 mg/kg/injection, schedule: Q01DX009 (ip), vehicle: suspension in saline 96 % of control | dose: 200.0 mg/kg/injection, schedule: Q01DX009 (ip), vehicle: suspension in saline 92 % of control

NC(=O)C1=CC2C3C=CC2(O)C(=O)OC3O1 (configuration not stated)
inactive: dose: 3.75 mg/kg/injection, schedule: Q01DX009 (ip), vehicle: Klucel (hydroxypropylcellulose) (HPC) 108 % of control and 123 % of control | [7] 118 % of control and 107 % of control | [8] 114 % of control and 123 % of control

CC1(C)COCN1COCCOCN1COCC1(C)C
inactive: dose: 6.25 mg/kg/injection, schedule: Q01DX009 (ip), vehicle: saline 94 % of control | dose: 12.5 mg/kg/injection, schedule: Q01DX009 (ip), vehicle: saline 96 % of control | dose: 25.0 mg/kg/injection, schedule: Q01DX009 (ip), vehicle: saline 101 % of control | dose: 50.0 mg/kg/injection, schedule: Q01DX009 (ip), vehicle: saline 115 % of control | dose: 100.0 mg/kg/injection, schedule: Q01DX009 (ip), vehicle: saline 113 % of control

CN(C)CCN1C(=O)c2cccc3cc(N)cc(c23)C1=O
inactive: dose: 1.0 mg/kg/injection, schedule: Q01DX009 (ip), vehicle: saline with Tween-80 113 % of control and 102 % of control | dose: 2.0 mg/kg/injection, schedule: Q01DX009 (ip), vehicle: acid diluted with saline 97 % of control | dose: 2.0 mg/kg/injection, schedule: Q01DX009 (ip), vehicle: saline with Tween-80 101 % of control and 102 % of control | dose: 4.0 mg/kg/injection, schedule: Q01DX009 (ip), vehicle: acid diluted with saline 106 % of control | dose: 4.0 mg/kg/injection, schedule: Q01DX009 (ip), vehicle: saline with Tween-80 112 % of control and 113 % of control and 120 % of control | dose: 8.0 mg/kg/injection, schedule: Q01DX009 (ip), vehicle: acid diluted with saline 111 % of control | dose: 8.0 mg/kg/injection, schedule: Q01DX009 (ip), vehicle: saline with Tween-80 116 % of control and 118 % of control and 120 % of control | dose: 16.0 mg/kg/injection, schedule: Q01DX009 (ip), vehicle: acid diluted with saline 110 % of control | dose: 16.0 mg/kg/injection, schedule: Q01DX009 (ip), vehicle: saline with Tween-80 87 % of control

CCCCCCC/C=C/C(=O)OC1C(OC2C(OC(CCCCCCC)CC(=O)OC(CCCCCCC)CC(=O)O)OC(C)C(O)C2O)OC(C)C(O)C1O (configuration not stated)
inactive: dose: 0.78 mg/kg/injection, schedule: Q01DX009 (ip), vehicle: Klucel (hydroxypropylcellulose) (HPC) 103 % of control | dose: 1.56 mg/kg/injection, schedule: Q01DX009 (ip), vehicle: Klucel (hydroxypropylcellulose) (HPC) 87 % of control | dose: 3.12 mg/kg/injection, schedule: Q01DX009 (ip), vehicle: Klucel (hydroxypropylcellulose) (HPC) 94 % of control

COc1cccc2c1C(=O)c1c(O)c3c(c(O)c1C2=O)C[C@@](O)(C(=O)CO)C[C@@H]3OC1CC(N2CCOCC2C#N)C(O)C(C)O1 (some centres not stated)
active: dose: 9.38 micrograms/kg/injection, schedule: Q01DX001 (ip), vehicle: water 156 % of control | dose: 18.75 micrograms/kg/injection, schedule: Q01DX001 (ip), vehicle: water 153 % of control | dose: 37.5 micrograms/kg/injection, schedule: Q01DX001 (ip), vehicle: water 156 % of control

O=NNc1ccccn1
inactive: dose: 1.56 mg/kg/injection, schedule: Q01DX009 (ip), vehicle: water 120 % of control and 96 % of control | dose: 3.12 mg/kg/injection, schedule: Q01DX009 (ip), vehicle: water 116 % of control and 120 % of control and 124 % of control

COC12[C@@H]3N[C@@H]3CN1C1=C(C(=O)C(NCCSSCCNC3=C(C)C(=O)C4=C(C3=O)C(COC(N)=O)[C@]3(OC)C5N[C@@H]5CN43)=C(C)C1=O)[C@@H]2COC(N)=O (some centres not stated)
active: dose: 0.75 mg/kg/injection, schedule: Q04DX003 (ip), vehicle: suspension in saline 193 % of control | dose: 1.5 mg/kg/injection, schedule: Q04DX003 (ip), vehicle: suspension in saline 190 % of control | dose: 3.0 mg/kg/injection, schedule: Q04DX003 (ip), vehicle: suspension in saline 218 % of control | dose: 6.0 mg/kg/injection, schedule: Q04DX003 (ip), vehicle: suspension in saline 218 % of control | dose: 12.0 mg/kg/injection, schedule: Q04DX003 (ip), vehicle: suspension in saline 218 % of control

COc1ccc(OC)c(/C=C/c2ccnc3ccccc23)c1
inactive: dose: 50.0 mg/kg/injection, schedule: Q01DX009 (ip), vehicle: saline sonified 95 % of control | dose: 100.0 mg/kg/injection, schedule: Q01DX009 (ip), vehicle: saline sonified 107 % of control | dose: 200.0 mg/kg/injection, schedule: Q01DX009 (ip), vehicle: saline sonified 117 % of control

[Cl][Pt+2][Cl].[NH-]c1ccc([N+](=O)[O-])cc1[NH-]
inactive: dose: 10.0 mg/kg/injection, schedule: Q01DX009 (ip), vehicle: saline with Tween-80 107 % of control | dose: 20.0 mg/kg/injection, schedule: Q01DX009 (ip), vehicle: saline with Tween-80 105 % of control | dose: 40.0 mg/kg/injection, schedule: Q01DX009 (ip), vehicle: saline with Tween-80 118 % of control | dose: 80.0 mg/kg/injection, schedule: Q01DX009 (ip), vehicle: saline with Tween-80 116 % of control

CC12CC3OC(=O)C1COC14OC5(C2C1=O)C(O)(CCC1C4CC2OC24CC=CC(=O)C14C)C(=O)OC35C (configuration not stated)
inactive: [7] 88 % of control | [8] 93 % of control | dose: 30.0 mg/kg/injection, schedule: Q01DX009 (ip), vehicle: Klucel (hydroxypropylcellulose) (HPC) 99 % of control

CC(=O)Nc1cscc1NC(C)=O
inactive: [2] 94 % of control and 102 % of control | [3] 111 % of control and 100 % of control | [4] 94 % of control | [5] 108 % of control and 99 % of control | [6] 96 % of control and 104 % of control
